Entries after “also recorded” stand apart in the source; their conditions may differ.
What was measured:
[1] = Pharmacokinetic study in rats
[2] = tested on: CHIKV; assay: Cell-based anti-attachment assay in Vero cells; details: 10 µM
[3] = Cytotoxicity assay alongside the replicon assay; details: hamster
[4] = tested on: CHIKV; assay: CHIKV plaque assay in Vero cells; details: Chikungunya virus, read-out: EC50, CHIKV inhibition
[5] = tested on: Sprague Dawley rats; assay: ALT and Cr levels in rat plasma samples of the PK study; details: single oral 250 mg/kg, plasma at 24, 48, 72 h
[6] = tested on: C57BL/6 mice; assay: Single-dose acute oral toxicity in mice
[7] = tested on: CHIKV; assay: In vivo anti-CHIKV efficacy, CHIKV-induced arthritis mouse model; details: for PMN infiltration in footpad (H&E), day 1 / PMN infiltration in footpad (H&E), days 2 and 3: compounds single oral 250 mg/kg, ribavirin 50 mg/kg BID IP
[8] = tested on: dengue virus NS5 methyltransferase (MTase); design: method as in Loeanurit et al., under review; details: targeting the SAM binding site; ref Loeanurit et al., under review; cited from earlier work
[9] = tested on: CHIKV; assay: CHIKV plaque assay in HEK 293 cells; details: Chikungunya virus, HEK293, read-out: EC50, CHIKV inhibition
[10] = Pharmacokinetic study in mice
[11] = biological target: CHIKV nsP1 (Chikungunya virus, UniProt Q8JUX6); assay: MTase-Glo methyltransferase assay; details: At 50 µM (method: 100 µM), purified CHIKV nsP1
CHIKV nsP1, sequence (Q8JUX6 1-535): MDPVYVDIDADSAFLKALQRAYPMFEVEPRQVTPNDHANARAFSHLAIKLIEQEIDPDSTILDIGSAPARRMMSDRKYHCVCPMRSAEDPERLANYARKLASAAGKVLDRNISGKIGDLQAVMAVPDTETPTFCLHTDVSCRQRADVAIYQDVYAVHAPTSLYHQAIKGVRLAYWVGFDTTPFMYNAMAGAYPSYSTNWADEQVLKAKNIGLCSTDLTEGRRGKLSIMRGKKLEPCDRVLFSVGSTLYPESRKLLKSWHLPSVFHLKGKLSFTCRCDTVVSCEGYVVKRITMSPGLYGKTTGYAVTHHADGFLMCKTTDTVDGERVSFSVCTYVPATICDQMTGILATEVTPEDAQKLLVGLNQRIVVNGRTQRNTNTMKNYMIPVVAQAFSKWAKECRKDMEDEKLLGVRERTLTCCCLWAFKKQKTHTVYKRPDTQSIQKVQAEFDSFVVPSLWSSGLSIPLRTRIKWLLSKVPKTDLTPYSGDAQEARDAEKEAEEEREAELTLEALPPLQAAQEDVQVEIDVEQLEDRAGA

[12] = tested on: CHIKV replicon; assay: CHIKV replicon inhibition assay (Renilla luciferase) in BHK-21 cells; details: Chikungunya virus, BHK-21, 24 h, read-out: EC50, CHIKV replicon inhibition (printed IC50 in Figure 2g,h and b75)
[13] = tested on: CHIKV; assay: Time-of-addition and time-of-removal assay in Vero cells; details: 10 µM, MOI 1
[14] = tested on: C57BL/6 mice; assay: Multiple-dose toxicity in mice; details: for Activity scores / behaviour / Creatinine / Histopathology of liver tissues / Histopathology of renal tissues: compound 3 250 mg/kg oral BID 3 days, ribavirin 50 mg/kg BID I.P.
[15] = Sprague Dawley, rat, in vivo, po, 250 mg/kg
[16] = rat, oral 250 mg/kg, mean ± SD, 250 mg/kg
[17] = single oral dose 250 or 500 mg/kg
[18] = C57BL/6, mouse, in vivo, po, 250 mg/kg
[19] = mice, oral 250 mg/kg, mean ± SD

O=c1oc2ccccc2c(O)c1C(c1cccc(Cl)c1)c1c(O)c2ccccc2oc1=O [compound 3, 3,3′-((3-chlorophenyl)methylene)bis(4-hydroxy-2H-chromen-2-one)]
AUC [1, 15]: 1090 µg·h/mL | AUC(0-inf) [1, 15]: 1100 ± 633 µg·h/mL | AUC(0-t) [1, 15]: 1090 ± 646 µg·h/mL | CL/F [1, 15]: 0.339 L/h/kg | MRT inf [1, 15]: 14.5 ± 5.73 h | MRT last [1, 15]: 12.9 ± 5.73 h | Cmax ([1]; Sprague Dawley, rat, in vivo, po, 250 mg/kg, Cmax, oral 250 mg/kg, mean ± SD): 80.7 ± 39.9 µg/mL | half-life ([1]; Sprague Dawley, rat, in vivo, po, 250 mg/kg, HL (half-life), oral 250 mg/kg, mean ± SD): 7.92 h | Cmax ([1]; Sprague Dawley, rat, in vivo, po, 250 mg/kg, Peak plasma concentration (Cmax), rats, oral 250 mg/kg): 80.7 µg/mL | Tmax ([1]; Sprague Dawley, rat, in vivo, po, 250 mg/kg, Tmax, oral 250 mg/kg, mean ± SD): 9.33 h | AUC_% Extrap_obs ([1]; rat, oral 250 mg/kg, mean ± SD): 2.128 ± 3.659% | Vz_F_obs ([1]; rat, oral 250 mg/kg, mean ± SD): 5.672 ± 8.054 L/kg | HL (half-life) [1, 16]: 7.922 ± 6.558 h | Tmax [1, 16]: 9.333 ± 2.309 h | Time within which plasma concentration fell below EC90 and EC50 ([1]; rats, oral 250 mg/kg): 24 to 48 h | CHIKV inhibition, post-incubation or throughout ([2]; Vero, MOI 0.1, 24 hpi): robust antiviral activity was observed | CHIKV inhibition, pre-treatment, pre-incubation or co-incubation ([2]; Vero, MOI 0.1, 24 hpi): Neither compound exhibited significant inhibition | Effect of compound pre-treatment on viral replication ([2]; cells treated 1 h before virus): enhanced the viral replication | CC50 [3]: 100.5 ± 0.11 µM | EC50 [4]: 2.85 ± 0.42 µM | ALT and Cr levels [5]: within normal limits | Serum ALT on day 1 ([6]; single oral dose 500 mg/kg, not statistically significant, resolved): slight increase | Activity scores [6, 17]: no significant difference in activity scores | Kidney histology [6, 17]: remained within normal limits | Liver (ALT) and kidney (creatinine) biomarkers ([6]; single oral dose 250 or 500 mg/kg, days 1, 3, 7): remained within normal limits | Survival and clinical signs over 7 days ([6]; single oral dose 250 or 500 mg/kg, mice): All animals survived | Liver histology ([6]; single oral dose, day 1, also seen in vehicle-treated animals): Mild, transient hepatocellular vacuolization | Tolerability of a single oral dose ([6]; up to 500 mg/kg, mice): well tolerated | Body weight ([7]; CHIKV-infected mice, single oral 250 mg/kg): greater body weight loss than other groups | PMN infiltration in footpad (H&E), day 1 [7]: reduced PMN infiltration on day 1 | PMN infiltration in footpad (H&E), days 2 and 3 [7]: PMN infiltration persisting at moderate levels | CHIKV titres in footpad tissues, plaque assay, day 2 post-infection ([7]; single oral 250 mg/kg): significantly reduced CHIKV titres in footpad tissues | Footpad swelling, tissue viral loads and systemic viremia (discussion summary) ([7]; single oral 250 mg/kg): significantly reduced footpad swelling, viral loads in infected tissues, and systemic viremia | Infectious viral titres in footpad tissue, plaque titration, day 3 ([7]; single oral 250 mg/kg): maintaining efficacy through day 3 howbeit not significantly | Systemic viremia (plasma CHIKV titres, plaque assay) ([7]; single oral 250 mg/kg): no marked reduction in systemic viremia | Viral RNA levels in footpad tissue (RT-qPCR) ([7]; single oral 250 mg/kg): marked reduction by day 3 | Foot swelling and activity vs vehicle group ([7]; single oral 250 mg/kg at 24 h after infection, transient, not significantly different from vehicle): moderate improvement in foot swelling and activity | Inhibition of dengue virus NS5 methyltransferase [8]: inhibitors of the dengue virus NS5 methyltransferase (MTase) | EC50 [9]: 3.08 ± 0.45 µM | AUC [10, 18]: 909 µg·h/mL | AUC(0-inf) [10, 18]: 909 ± 835 µg·h/mL | AUC(0-t) [10, 18]: 909 ± 835 µg·h/mL | CL/F [10, 18]: 1.1 L/h/kg | MRT inf [10, 18]: 10.6 ± 0.728 h | MRT last [10, 18]: 10.5 ± 0.646 h | Tmax [10, 18]: 10 ± 3.46 h | Cmax ([10]; C57BL/6, mouse, in vivo, po, 250 mg/kg, Cmax, mice, oral 250 mg/kg, mean ± SD): 68.9 ± 64.1 µg/mL | half-life ([10]; C57BL/6, mouse, in vivo, po, 250 mg/kg, HL (half-life), mice, oral 250 mg/kg, mean ± SD): 4.16 h | Cmax ([10]; C57BL/6, mouse, in vivo, po, 250 mg/kg, Peak plasma concentration (Cmax), mice, oral 250 mg/kg): 68.9 µg/mL | Time within which plasma concentration fell below EC90 and EC50 ([10]; mice, oral 250 mg/kg): 24 to 48 h | AUC_% Extrap_obs [10, 19]: 0.124 ± 0.185% | Vz_F_obs [10, 19]: 7.963 ± 11.841 L/kg | HL (half-life) ([10]; mice, oral 250 mg/kg, mean ± SD, 250 mg/kg): 4.163 ± 0.941 h | nsP1 methyltransferase enzymatic activity vs DMSO control [11]: significantly inhibited enzymatic activity | EC50 [12]: 6.64 ± 0.86 µM | Time-of-addition time-points significantly different from DMSO control [13]: 3–9 hpi | Viral replication in time-of-removal (TOR) assay [13]: viral replication resumed upon compound removal at 12 hpi | Viral titres in time-of-addition (TOA) assay [13]: significantly reduced viral titres when added up to 9 hpi; also recorded: persisted when added as late as 12 hours post-infection | Serum ALT by day 3 vs vehicle and ribavirin groups ([14]; 250 mg/kg oral BID for 3 days): markedly elevated | Activity scores / behaviour [14]: activity scores increased by day 2 | Creatinine [14]: remained within normal limits | Histopathology of liver tissues [14]: hepatocellular vacuolization and mononuclear infiltration | Histopathology of renal tissues [14]: proximal tubular edema and vacuolization

NC(=O)c1ncn([C@@H]2O[C@H](CO)[C@@H](O)[C@H]2O)n1 [ribavirin, Ribavirin, reference compound]
PMN infiltration in footpad (H&E), day 1 [7]: reduced PMN infiltration on day 1 | PMN infiltration in footpad (H&E), days 2 and 3 [7]: PMN infiltration persisting at moderate levels | Activity scores / behaviour [14]: maintained normal behaviour and activity | Creatinine [14]: remained within normal limits | Histopathology of liver tissues [14]: No pathological abnormalities were observed | Histopathology of renal tissues [14]: No pathological abnormalities were observed
